In ChEMBL document CHEMBL3885881, “DrugMatrix”:

Organism: Rattus norvegicus
Experiment: DrugMatrix - Regimen: Daily Repeat
Assay type: toxicity, organism-based, Sprague-Dawley
Parameters: regimen Daily Repeat, gender Male, age 6-8 weeks
Conditions: in vivo, iv, […], vehicle 100 % SALINE; for ALANINE AMINOTRANSFERASE / ALBUMIN / ALKALINE PHOSPHATASE / ASPARTATE AMINOTRANSFERASE / BLOOD UREA NITROGEN / CARBON DIOXIDE / CHLORIDE / CHOLESTEROL / CREATINE PHOSPHOKINASE / CREATININE / GLUCOSE / LACTATE DEHYDROGENASE / LIPASE / PHOSPHORUS / POTASSIUM / SODIUM / TOTAL BILIRUBIN / TOTAL PROTEIN / URIC ACID: tissue Plasma; for ABSOLUTE BASOPHIL / ABSOLUTE EOSINOPHIL / ABSOLUTE LYMPHOCYTE / ABSOLUTE MONOCYTE / ABSOLUTE SEGMENTED NEUTROPHIL / BASOPHIL / EOSINOPHIL / ERYTHROCYTE COUNT / HEMATOCRIT / HEMOGLOBIN / LEUKOCYTE COUNT / LYMPHOCYTE / MEAN CORPUSCULAR HEMOGLOBIN / MEAN CORPUSCULAR HEMOGLOBIN CONCENTRATION / MEAN CORPUSCULAR VOLUME / MONOCYTE / NEUTROPHIL / NUCLEATED RED BLOOD CELLS / PLATELET COUNT: tissue Blood
[1] = 72 h, dose 0.0033 mg/Kg, dose level Low, time 3 day
[2] = 72 h, dose 0.033 mg/Kg, dose level High, time 3 day
[3] = 120 h, dose 0.0033 mg/Kg, dose level Low, time 5 day
[4] = 120 h, dose 0.033 mg/Kg, dose level High, time 5 day

In the case of COc1cc2c3cc1Oc1cc(ccc1O)C[C@@H]1c4c(cc(OC)c(O)c4Oc4ccc(cc4)C[C@@H]3N(C)CC2)CC[N+]1(C)C.[Cl-], the “ALANINE AMINOTRANSFERASE” value [1] is reported as 58 u/L, the ALBUMIN [1] is reported as 4.23 G/DL and the “ALKALINE PHOSPHATASE” value [1] is reported as 467.33 u/L. The “ASPARTATE AMINOTRANSFERASE” value [1] was 94 u/L, the “BLOOD UREA NITROGEN” value [1] was 17 mg/dL and the “CARBON DIOXIDE” value [1] was 33 mmol/L. For the same molecule, the CHLORIDE [1] was 101 MEQ/L, the CHOLESTEROL [1] was 69.33 mg/dL and the “CREATINE PHOSPHOKINASE” value [1] was 839.67 u/L. For the same molecule, the CREATININE [1] was 0.22 mg/dL, the GLUCOSE [1] was 165 mg/dL and the “LACTATE DEHYDROGENASE” value [1] was 138 u/L. For the same molecule, the LIPASE [1] was 8.33 u/L, the PHOSPHORUS [1] was 10.83 mg/dL and the POTASSIUM [1] was 5.81 MEQ/L. For the same molecule, the SODIUM [1] was 143.17 MEQ/L, the “TOTAL BILIRUBIN” value [1] was 0.2 mg/dL and the “TOTAL PROTEIN” value [1] was 5.87 G/DL. For the same molecule, the “URIC ACID” value [1] was 0.9 mg/dL, the “ALANINE AMINOTRANSFERASE” value [2] was 56 u/L and the ALBUMIN [2] was 3.97 G/DL. The “ALKALINE PHOSPHATASE” value [2] was 312.33 u/L, the “ASPARTATE AMINOTRANSFERASE” value [2] was 91.67 u/L and the “BLOOD UREA NITROGEN” value [2] was 16.33 mg/dL. For the same molecule, the “CARBON DIOXIDE” value [2] was 28 mmol/L, the CHLORIDE [2] was 101.33 MEQ/L and the CHOLESTEROL [2] was 75.33 mg/dL. The “CREATINE PHOSPHOKINASE” value [2] was 431.33 u/L, the CREATININE [2] was 0.2 mg/dL and the GLUCOSE [2] was 169 mg/dL. For the same molecule, the “LACTATE DEHYDROGENASE” value [2] was 240.33 u/L, the LIPASE [2] was 12.67 u/L and the PHOSPHORUS [2] was 11.4 mg/dL. For the same molecule, the POTASSIUM [2] was 5.83 MEQ/L, the SODIUM [2] was 141.23 MEQ/L and the “TOTAL BILIRUBIN” value [2] was 0.2 mg/dL. For the same molecule, the “TOTAL PROTEIN” value [2] was 5.67 G/DL, the “URIC ACID” value [2] was 1.5 mg/dL and the “ABSOLUTE BASOPHIL” value [3] was 0 CELLS/uL. For the same molecule, the “ABSOLUTE EOSINOPHIL” value [3] was 0 CELLS/uL, the “ABSOLUTE LYMPHOCYTE” value [3] was 11354.67 CELLS/uL and the “ABSOLUTE MONOCYTE” value [3] was 87 CELLS/uL. The “ABSOLUTE SEGMENTED NEUTROPHIL” value [3] was 958.33 CELLS/uL, the BASOPHIL [3] was 0% and the EOSINOPHIL [3] was 0%. The “ERYTHROCYTE COUNT” value [3] was 5.2 x10E6/uL, the HEMATOCRIT [3] was 33.13% and the HEMOGLOBIN [3] was 13.43 G/DL. For the same molecule, the “LEUKOCYTE COUNT” value [3] was 12.4 x10E3/uL, the LYMPHOCYTE [3] was 91.67% and the “MEAN CORPUSCULAR HEMOGLOBIN” value [3] was 25.8 pg. For the same molecule, the “MEAN CORPUSCULAR HEMOGLOBIN CONCENTRATION” value [3] was 40.53 G/DL, the “MEAN CORPUSCULAR VOLUME” value [3] was 63.7 fL and the MONOCYTE [3] was 0.67%. For the same molecule, the NEUTROPHIL [3] was 7.67%, the “NUCLEATED RED BLOOD CELLS” value [3] was 0 /100WBC and the “PLATELET COUNT” value [3] was 1167.67 x10E3/uL. The “ABSOLUTE BASOPHIL” value [4] was 0 CELLS/uL, the “ABSOLUTE EOSINOPHIL” value [4] was 146 CELLS/uL and the “ABSOLUTE LYMPHOCYTE” value [4] was 11010.33 CELLS/uL. For the same molecule, the “ABSOLUTE MONOCYTE” value [4] was 173 CELLS/uL, the “ABSOLUTE SEGMENTED NEUTROPHIL” value [4] was 1104 CELLS/uL and the BASOPHIL [4] was 0%. For the same molecule, the EOSINOPHIL [4] was 1%, the “ERYTHROCYTE COUNT” value [4] was 5.51 x10E6/uL and the HEMATOCRIT [4] was 34.03%. The HEMOGLOBIN [4] was 13.57 G/DL, the “LEUKOCYTE COUNT” value [4] was 12.43 x10E3/uL and the LYMPHOCYTE [4] was 88.67%. The “MEAN CORPUSCULAR HEMOGLOBIN” value [4] was 24.63 pg, the “MEAN CORPUSCULAR HEMOGLOBIN CONCENTRATION” value [4] was 39.87 G/DL and the “MEAN CORPUSCULAR VOLUME” value [4] was 61.77 fL. The MONOCYTE [4] was 1.33%, the NEUTROPHIL [4] was 9% and the “NUCLEATED RED BLOOD CELLS” value [4] was 0 /100WBC. For the same molecule, the “PLATELET COUNT” value [4] was 1282.67 x10E3/uL, the “ALANINE AMINOTRANSFERASE” value [3] was 55.67 u/L and the ALBUMIN [3] was 4.07 G/DL. The “ALKALINE PHOSPHATASE” value [3] was 352.67 u/L, the “ASPARTATE AMINOTRANSFERASE” value [3] was 91.67 u/L and the “BLOOD UREA NITROGEN” value [3] was 20.67 mg/dL. For the same molecule, the “CARBON DIOXIDE” value [3] was 28 mmol/L, the CHLORIDE [3] was 102.67 MEQ/L and the CHOLESTEROL [3] was 72.67 mg/dL. For the same molecule, the “CREATINE PHOSPHOKINASE” value [3] was 402.33 u/L, the CREATININE [3] was 0.22 mg/dL and the GLUCOSE [3] was 169 mg/dL. The “LACTATE DEHYDROGENASE” value [3] was 354.67 u/L, the LIPASE [3] was 10 u/L and the PHOSPHORUS [3] was 11.7 mg/dL. For the same molecule, the POTASSIUM [3] was 6.36 MEQ/L, the SODIUM [3] was 144.1 MEQ/L and the “TOTAL BILIRUBIN” value [3] was 0.17 mg/dL. For the same molecule, the “TOTAL PROTEIN” value [3] was 5.8 G/DL, the “URIC ACID” value [3] was 1.53 mg/dL and the “ALANINE AMINOTRANSFERASE” value [4] was 66.33 u/L. The ALBUMIN [4] was 4.17 G/DL, the “ALKALINE PHOSPHATASE” value [4] was 366.33 u/L and the “ASPARTATE AMINOTRANSFERASE” value [4] was 97.67 u/L. The “BLOOD UREA NITROGEN” value [4] was 17.33 mg/dL, the “CARBON DIOXIDE” value [4] was 29.33 mmol/L and the CHLORIDE [4] was 101.33 MEQ/L. For the same molecule, the CHOLESTEROL [4] was 68.67 mg/dL, the “CREATINE PHOSPHOKINASE” value [4] was 303.67 u/L and the CREATININE [4] was 0.15 mg/dL. For the same molecule, the GLUCOSE [4] was 156.33 mg/dL, the “LACTATE DEHYDROGENASE” value [4] was 446 u/L and the LIPASE [4] was 10.67 u/L. It also gave a PHOSPHORUS [4] of 11.53 mg/dL, a POTASSIUM [4] of 5.71 MEQ/L and an SODIUM [4] of 142.9 MEQ/L. For the same molecule, the “TOTAL BILIRUBIN” value [4] was 0.2 mg/dL, the “TOTAL PROTEIN” value [4] was 5.73 G/DL and the “URIC ACID” value [4] was 1.33 mg/dL.
